Assay results as given in patent US5591828A, “Bispecific and oligospecific mono-and oligovalent receptors, the preparation and use thereof” (Behringwerke Aktiengesellschaft, priority 1989, dated 1997).

Tests used:
Assay in all cases: Quantitative inhibition ELISA for MAbs by DTPA or EDTA complexes
Assay type in all cases: binding, mouse (Balb/c)
[1] = biological target: MAb 2050/531 (anti-DTPA/EDTA monoclonal antibody); settings: solid phase Y-benzyl-DTPA-HSA, preincubation with competitor at RT for 30'
Procedure: (§1) Isothiocyanatobenzyl-DTPA (formula 2) was covalently coupled as hapten onto human serum albumin (HSA as carrier) with a degree of derivatization of 19 benzyl-DTPA molecules per HSA molecule by the method described in (N. W. Brechbiel et al., Inorganic Chemistry25, (1986) 2772-2781). 20 μg of this hapten-carrier complex, into which cold Y had been complexed, were injected s.c. on day 0 with Freund's adjuvant, on day 7 and 14 with incomplete Freund's adjuvant and on day 21 with PBS into Balb/c mice. On day 24, the spleens of the mice with the highest anti-DTPA antibody titers were fused with the SP2/0-Ag14 myeloma cell line (Shulman et al., Nature 276, (1978) 269). The resulting hybridomas were tested in a DTPA-specific ELISA for the production of high-affinity MAbs against DTPA and EDTA. The ELISA comprised a solid phase which was loaded with a solution containing HSA-benzyl-DTPA-Y. The supernatant containing the MAb to be tested was preincubated with free chelate or its metal ion complexes, and its binding to the specific solid phase was measured. An enzyme amplification system which is coupled to an anti-mouse immunoglobulin antibody was used for this purpose. The details of these methods are described in Annex 1a and 1b.
(§2) Quantitative inhibition ELISA for MAbs by DTPA or EDTA complexes
(§3) 1) 50 μl of Y-benzyl-DTPA-HSA 19 conjugate with a concentration of 1 μg of conjugate per ml of PBS, pH 7.2, are pipetted into each well and incubated at room temperature (RT) overnight.
(§4) 5) Preincubation of the diluted hybridoma supernatant with the competitor is carried out during the blocking (see Annex 1b).
(§5) 6) 50 μl of the appropriately prediluted and preincubated hybridoma supernatants to be tested are applied to each well and incubated at RT for 30 min.
(§6) 15) The extinctions are measured at 492 nm in a […]® […]. 50 μl of NADP with 50 μl of solution and 1200 μl of 0.1N H2 SO4 are employed as blank.
(§7) Preincubation of the hybridoma supernatant with the competitor
(§8) On the basis of the ELISA concentration determination, the hybridoma supernatants are diluted to 1.25 μg/ml in PBS without Ca^++ and Mg^++.
(§9) The hybridoma supernatant is incubated with 100,000-fold, 50,000-fold, 10,000-fold, 5,000-fold, 1,000-fold and 100-fold excess of competitor at RT for 30'. 50 μl of this are pipetted into the ELISA (see Annex 1a, no. 6).
(§10) The complexing constant of DTPA or EDTA to the metal ions depicted in Table I is extremely high so that complete saturation has to be expected on equimolar mixing of DTPA or EDTA with these metal ions. For this reason, the corresponding metal ions were incubated in a 3-fold molar excess with the DTPA or EDTA. As an example, 170 μl of a 10 mM cadmium sulfate solution in double-distilled water (see Annex 1d) were incubated with 30 μl of a 0.028 molar DTPA stock solution in double-distilled water at RT for 5'. Mixing 10 μl of this competitor solution with the hybridoma supernatant leads to a 100,000-fold excess of competitor over the MAb contained in the hybridoma supernatant. Lower competitor to MAb ratios were achieved by diluting the competitor solution in the particular salt ion solution appropriately for the desired molar excess (see Annex 1b).
(§11) Quantitative assay of inhibition of MAb by DTPA and EDTA
(§12) Molar excess of competitor which leads to 50% inhibition of the binding to the solid-phase antigen.

[2] = biological target: MAb 2050/532 (anti-DTPA/EDTA monoclonal antibody); settings: solid phase Y-benzyl-DTPA-HSA, preincubation with competitor at RT for 30'
Procedure: as §1, §2, §3, §4, §5, §6, §7, §8, §9, §10, §11, §12

[3] = biological target: MAb 2050/534 (anti-DTPA/EDTA monoclonal antibody); settings: solid phase Y-benzyl-DTPA-HSA, preincubation with competitor at RT for 30'
Procedure: as §1, §2, §3, §4, §5, §6, §7, §8, §9, §10, §11, §12

[4] = biological target: MAb BW 2050/174 (anti-DTPA/EDTA monoclonal antibody); settings: MAb 2050/174; solid phase Y-benzyl-DTPA-HSA; preincubation with competitor at RT for 30'
Procedure: as §1, §2, §3, §4, §5, §6, §7, §8, §9, §10, §11, §12

[5] = biological target: MAb 2050/535 (anti-DTPA/EDTA monoclonal antibody); settings: solid phase Y-benzyl-DTPA-HSA, preincubation with competitor at RT for 30'
Procedure: as §1, §2, §3, §4, §5, §6, §7, §8, §9, §10, §11, §12

| Molar excess of competitor which leads to 50% inhibition of the binding to the solid-phase antigen [1] | Molar excess of competitor which leads to 50% inhibition of the binding to the solid-phase antigen [2] | Molar excess of competitor which leads to 50% inhibition of the binding to the solid-phase antigen [3] | Molar excess of competitor which leads to 50% inhibition of the binding to the solid-phase antigen [4] | Molar excess of competitor which leads to 50% inhibition of the binding to the solid-phase antigen [5] | SMILES |
| --- | --- | --- | --- | --- | --- |
| 10^2 molar excess | 5 × 10^3 molar excess | 10^3 molar excess | 10^3 molar excess | 10^2 molar excess | O=C([O-])CN(CCN(CC(=O)[O-])CC(=O)[O-])CC(=O)[O-].[Cu+2] [EDTA-Cu] |
| 10^3 molar excess | 10^3 molar excess | 10^3 molar excess | 10^3 molar excess | 10^2 molar excess | O=C([O-])CN(CCN(CC(=O)O)CC(=O)O)CC(=O)[O-].[Zn+2] [EDTA-Zn] |
| > 10^5 molar excess | > 10^5 molar excess | > 10^5 molar excess | > 10^5 molar excess | > 10^5 molar excess | O=C(O)/C=C(\CC(=O)O)C(=O)O [Trans-aconitic acid, transaconitic acid] |
| 10^3 molar excess | 10^3 molar excess | 10^3 molar excess | 10^3 molar excess | 10^3 molar excess | O=C(O)CN(CCN(CC(=O)O)CC(=O)O)CCN(CC(=O)O)CC(=O)O [DTPA, diethylenetriaminepentaacetate] |
| 5 × 10^3 molar excess | 5 × 10^3 molar excess | 5 × 10^3 molar excess | 5 × 10^3 molar excess | 10^3 molar excess | O=C([O-])CN(CCN(CCN(CC(=O)O)CC(=O)O)CC(=O)O)CC(=O)[O-].[Zn+2] [DTPA-Zn] |
| 5 × 10^4 molar excess | 5 × 10^4 molar excess | 5 × 10^4 molar excess | 10^4 molar excess | 10^4 molar excess | O=C([O-])CN(CCN(CC(=O)[O-])CC(=O)[O-])CCN(CC(=O)[O-])CC(=O)[O-].[Y+3] [DTPA-Y] |

| SMILES | Molar excess of competitor which leads to 50% inhibition of the binding to the solid-phase antigen [1] | Molar excess of competitor which leads to 50% inhibition of the binding to the solid-phase antigen [2] | Molar excess of competitor which leads to 50% inhibition of the binding to the solid-phase antigen [3] | Molar excess of competitor which leads to 50% inhibition of the binding to the solid-phase antigen [4] | Molar excess of competitor which leads to 50% inhibition of the binding to the solid-phase antigen [5] |
| --- | --- | --- | --- | --- | --- |
| NCCN [1,2-Diaminoethane, 1,2-diaminoethane] | > 10^5 molar excess | > 10^5 molar excess | > 10^5 molar excess | > 10^5 molar excess | > 10^5 molar excess |
